# According to publication PMC2577671, “Evaluation of Dimebon in cellular model of Huntington's disease” (Molecular Neurodegeneration, 2008):
# Legend:
# Test in all cases: biochemical
# Parameters in all cases: MDS Pharma Lead Profiling screen, binding assays, per cent inhibition, duplicate
# [1] = molecular target: T1, GABAB1A (Homo sapiens, UniProt Q9UBS5)
# T1 construct: gene GABBR1; isoform 1A
# Procedure: (§1) The activity of Dimebon against selected set of biochemical targets was performed by MDS Pharma Services . The Dimebon was provided to MDS Pharma as dry powder, dissolved in DMSO and tested in 10 μM concentrations. The standard Lead Profiling + CYP450 screen was performed according to MDS Pharma specifications with additional custom-chosen targets added to the screen as indicated. To further understand potential mechanisms responsible for clinical effects of Dimebon, we evaluated Dimebon against a set of selected biochemical targets. Dimebon evaluation was performed by MDS Pharma Services . The standard Lead Profiling + CYP450 screen was performed with additional custom-selected targets added to the screen. The results of the screen obtained at 10 μM of Dimebon are provided as Additional File 3. […] Low affinity (50–60% inhibition) interactions were also observed for CYP450, 2C19 receptor, voltage-gated L-type Ca^2+ channel, Dopamine D4.2 receptor, and Serotonin 5-HT1 receptor. […] Supplementary file 1750-1326-3-15-S3.pdf: Additional file 3 The results of Dimebon screening against a selected set of biochemical targets. The complete results obtained by MDS Pharma with a selected list of biochemical targets using 10 μM of Dimebon as a probe. The Cat numbers refer to the MDS Pharma Services assay specification. The receptors and species are listed. Dimebon was tested at 10 μM concentratio in duplicate. The % inhibition by Dimebon is shown numerically and graphically for each receptor. Significant targets (defined as % inhibition > 50%) are highlighted in yellow. Click here for file
# [2] = molecular target: T2, Serotonin 5-HT3 (Homo sapiens, UniProt P46098)
# T2 construct: gene HTR3A
# Procedure: as §1
# [3] = molecular target: T3, Prostanoid EP4 (Homo sapiens, UniProt P35408)
# T3 construct: gene PTGER4
# T3 sequence (P35408 whole entry): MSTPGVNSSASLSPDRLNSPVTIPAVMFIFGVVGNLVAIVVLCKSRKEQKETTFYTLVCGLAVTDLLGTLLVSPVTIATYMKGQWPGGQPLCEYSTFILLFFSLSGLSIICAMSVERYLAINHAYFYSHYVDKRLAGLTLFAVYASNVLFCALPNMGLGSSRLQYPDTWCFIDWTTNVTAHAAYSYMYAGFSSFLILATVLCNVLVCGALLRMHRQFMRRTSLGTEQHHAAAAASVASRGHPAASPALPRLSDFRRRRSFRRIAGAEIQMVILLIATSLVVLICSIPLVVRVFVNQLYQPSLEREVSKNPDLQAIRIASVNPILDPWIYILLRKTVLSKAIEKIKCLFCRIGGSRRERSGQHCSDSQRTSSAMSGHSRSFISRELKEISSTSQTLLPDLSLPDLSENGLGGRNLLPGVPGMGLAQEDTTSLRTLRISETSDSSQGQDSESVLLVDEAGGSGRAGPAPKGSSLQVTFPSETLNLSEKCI
# Procedure: as §1
# [4] = molecular target: T4, Neuropeptide Y Y1 (Homo sapiens, UniProt P25929)
# T4 construct: gene NPY1R
# T4 sequence (P25929 whole entry): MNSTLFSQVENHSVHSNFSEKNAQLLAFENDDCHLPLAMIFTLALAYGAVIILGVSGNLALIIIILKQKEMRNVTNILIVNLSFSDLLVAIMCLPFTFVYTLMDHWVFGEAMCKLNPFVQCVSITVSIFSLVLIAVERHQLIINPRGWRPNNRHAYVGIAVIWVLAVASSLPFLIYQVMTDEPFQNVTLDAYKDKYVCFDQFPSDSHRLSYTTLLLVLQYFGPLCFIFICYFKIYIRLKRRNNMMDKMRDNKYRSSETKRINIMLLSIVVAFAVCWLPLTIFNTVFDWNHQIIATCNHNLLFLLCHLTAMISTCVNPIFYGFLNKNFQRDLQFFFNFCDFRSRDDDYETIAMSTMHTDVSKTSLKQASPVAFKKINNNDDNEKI
# Procedure: as §1
# [5] = molecular target: T5, Serotonin 5-HT2B (Homo sapiens, UniProt P41595)
# T5 construct: gene HTR2B
# T5 sequence (P41595 whole entry): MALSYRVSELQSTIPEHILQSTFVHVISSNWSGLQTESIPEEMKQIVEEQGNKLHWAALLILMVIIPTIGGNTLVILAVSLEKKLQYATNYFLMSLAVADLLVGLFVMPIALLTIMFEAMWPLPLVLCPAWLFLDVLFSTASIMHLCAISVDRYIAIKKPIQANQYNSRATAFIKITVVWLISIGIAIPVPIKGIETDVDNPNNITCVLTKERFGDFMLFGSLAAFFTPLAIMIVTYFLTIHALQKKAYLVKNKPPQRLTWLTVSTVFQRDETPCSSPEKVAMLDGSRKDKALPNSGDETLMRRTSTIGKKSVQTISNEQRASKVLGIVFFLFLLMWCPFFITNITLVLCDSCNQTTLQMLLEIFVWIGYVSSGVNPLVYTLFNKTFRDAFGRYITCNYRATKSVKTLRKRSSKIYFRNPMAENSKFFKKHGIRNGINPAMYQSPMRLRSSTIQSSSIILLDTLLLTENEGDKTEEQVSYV
# Procedure: as §1
# [6] = molecular target: T6, Opiate mu (OP3, MOP) (Homo sapiens, UniProt P35372)
# T6 construct: gene OPRM1
# Procedure: as §1
# [7] = molecular target: T7, Serotonin 5-HT5A receptor (Homo sapiens, UniProt P47898)
# T7 construct: gene HTR5A
# T7 sequence (P47898 whole entry): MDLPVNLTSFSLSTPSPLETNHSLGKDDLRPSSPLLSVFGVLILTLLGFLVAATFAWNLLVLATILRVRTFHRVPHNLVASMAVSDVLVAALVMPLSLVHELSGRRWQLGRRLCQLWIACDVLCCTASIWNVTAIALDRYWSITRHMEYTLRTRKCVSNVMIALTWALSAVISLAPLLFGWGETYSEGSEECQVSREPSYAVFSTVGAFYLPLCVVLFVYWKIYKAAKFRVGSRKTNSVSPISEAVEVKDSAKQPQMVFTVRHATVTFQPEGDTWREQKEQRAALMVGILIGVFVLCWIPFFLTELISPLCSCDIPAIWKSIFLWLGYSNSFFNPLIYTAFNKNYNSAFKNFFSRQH
# Procedure: as §1
# [8] = molecular target: T8, α1D-Adrenergic receptor (Homo sapiens, UniProt P25100)
# T8 construct: gene ADRA1D
# Procedure: as §1
# [9] = molecular target: T9, G Protein-Coupled Receptor GPR103 (Homo sapiens, UniProt Q96P65)
# T9 construct: gene QRFPR
# T9 sequence (Q96P65 whole entry): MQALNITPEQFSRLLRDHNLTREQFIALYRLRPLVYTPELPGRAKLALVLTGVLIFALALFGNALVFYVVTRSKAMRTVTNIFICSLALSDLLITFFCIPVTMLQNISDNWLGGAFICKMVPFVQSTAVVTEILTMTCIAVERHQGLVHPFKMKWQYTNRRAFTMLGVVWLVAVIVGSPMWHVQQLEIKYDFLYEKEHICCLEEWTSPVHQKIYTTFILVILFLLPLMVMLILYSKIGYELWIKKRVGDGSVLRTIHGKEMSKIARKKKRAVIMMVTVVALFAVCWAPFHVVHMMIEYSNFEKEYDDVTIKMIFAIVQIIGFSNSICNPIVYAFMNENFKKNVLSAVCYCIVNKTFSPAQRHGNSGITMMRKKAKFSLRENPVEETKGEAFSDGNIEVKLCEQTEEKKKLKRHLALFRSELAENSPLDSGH
# Procedure: as §1
# [10] = molecular target: T10, α1A-Adrenergic receptor (Rattus norvegicus, UniProt P43140)
# T10 construct: gene Adra1a
# Procedure: as §1
# [11] = molecular target: T11, α1B-Adrenergic receptor (Rattus norvegicus, UniProt P15823)
# T11 construct: gene Adra1b
# Procedure: as §1
# [12] = molecular target: T12, Serotonin 5-HT1B (Rattus norvegicus, UniProt P28564)
# T12 construct: gene Htr1b
# Procedure: as §1
# [13] = molecular target: T13, Transporter, Dopamine (DAT) (Homo sapiens, UniProt Q01959)
# T13 construct: gene SLC6A3
# T13 sequence (Q01959 whole entry): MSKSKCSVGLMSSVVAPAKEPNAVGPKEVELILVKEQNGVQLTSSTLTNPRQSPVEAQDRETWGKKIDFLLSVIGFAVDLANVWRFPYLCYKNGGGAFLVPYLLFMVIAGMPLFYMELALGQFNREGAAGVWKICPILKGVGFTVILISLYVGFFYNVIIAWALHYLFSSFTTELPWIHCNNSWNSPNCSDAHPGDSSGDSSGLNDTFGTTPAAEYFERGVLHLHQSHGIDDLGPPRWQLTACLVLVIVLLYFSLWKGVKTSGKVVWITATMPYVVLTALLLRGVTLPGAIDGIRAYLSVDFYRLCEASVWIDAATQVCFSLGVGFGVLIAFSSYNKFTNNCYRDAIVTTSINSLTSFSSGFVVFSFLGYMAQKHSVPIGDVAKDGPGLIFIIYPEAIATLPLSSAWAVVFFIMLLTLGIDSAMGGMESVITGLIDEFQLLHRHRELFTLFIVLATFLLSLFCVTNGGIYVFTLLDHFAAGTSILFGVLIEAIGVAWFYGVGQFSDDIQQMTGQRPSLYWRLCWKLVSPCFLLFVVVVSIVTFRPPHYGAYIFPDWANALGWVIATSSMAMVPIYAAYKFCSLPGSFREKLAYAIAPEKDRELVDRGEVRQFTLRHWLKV
# Procedure: as §1
# [14] = molecular target: T14, Histamine H1 receptor (Homo sapiens, UniProt P35367)
# T14 construct: gene HRH1
# Procedure: as §1
# [15] = molecular target: T15, Sigma 2 (Rattus norvegicus, UniProt Q5U3Y7)
# T15 construct: gene Tmem97
# T15 sequence (Q5U3Y7 whole entry): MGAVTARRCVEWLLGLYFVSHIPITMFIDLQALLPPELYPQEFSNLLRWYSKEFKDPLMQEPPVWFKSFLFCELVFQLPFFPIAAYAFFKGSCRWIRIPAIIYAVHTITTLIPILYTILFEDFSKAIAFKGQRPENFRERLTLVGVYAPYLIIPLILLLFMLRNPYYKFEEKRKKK
# Procedure: as §1
# [16] = molecular target: T16, Adenosine A3 (Homo sapiens, UniProt P0DMS8)
# T16 construct: gene ADORA3
# Procedure: as §1
# [17] = molecular target: T17, Bradykinin B2 (Homo sapiens, UniProt P30411)
# T17 construct: gene BDKRB2
# T17 sequence (P30411 whole entry): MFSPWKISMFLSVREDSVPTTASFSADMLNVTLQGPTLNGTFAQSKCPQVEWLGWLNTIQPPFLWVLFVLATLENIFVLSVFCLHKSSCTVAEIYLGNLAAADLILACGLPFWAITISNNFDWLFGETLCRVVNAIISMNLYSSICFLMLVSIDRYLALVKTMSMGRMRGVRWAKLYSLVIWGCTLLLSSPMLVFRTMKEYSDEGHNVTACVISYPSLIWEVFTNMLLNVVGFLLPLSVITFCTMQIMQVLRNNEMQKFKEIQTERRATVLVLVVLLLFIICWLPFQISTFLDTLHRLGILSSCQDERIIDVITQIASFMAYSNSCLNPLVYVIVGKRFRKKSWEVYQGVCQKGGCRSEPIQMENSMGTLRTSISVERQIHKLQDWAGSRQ
# Procedure: as §1
# [18] = molecular target: T18, Muscarinic M1 (Homo sapiens, UniProt P11229)
# T18 construct: gene CHRM1
# Procedure: as §1
# [19] = molecular target: T19, Calcium Channel N-Type (Rattus norvegicus, UniProt Q02294)
# T19 construct: gene Cacna1b
# Procedure: as §1
# [20] = molecular target: T20, Histamine H3 (Homo sapiens, UniProt Q9Y5N1)
# T20 construct: gene HRH3
# T20 sequence (Q9Y5N1 whole entry): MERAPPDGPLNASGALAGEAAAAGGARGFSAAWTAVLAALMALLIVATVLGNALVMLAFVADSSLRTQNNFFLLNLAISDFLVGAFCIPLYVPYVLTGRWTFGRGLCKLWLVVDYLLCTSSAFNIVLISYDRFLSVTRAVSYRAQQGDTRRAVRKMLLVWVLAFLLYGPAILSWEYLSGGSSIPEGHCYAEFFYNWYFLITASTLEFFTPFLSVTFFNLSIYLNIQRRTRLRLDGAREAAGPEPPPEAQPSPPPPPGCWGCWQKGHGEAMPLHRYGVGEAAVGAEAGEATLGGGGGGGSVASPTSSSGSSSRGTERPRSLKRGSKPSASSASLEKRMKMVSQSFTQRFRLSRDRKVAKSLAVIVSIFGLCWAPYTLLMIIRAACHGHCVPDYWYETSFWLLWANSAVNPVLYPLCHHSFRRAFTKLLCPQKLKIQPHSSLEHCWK
# Procedure: as §1
# [21] = molecular target: T21, Dopamine D3 (Homo sapiens, UniProt P35462)
# T21 construct: gene DRD3
# Procedure: as §1
# T1 sequence (Q9UBS5 whole entry, canonical isoform): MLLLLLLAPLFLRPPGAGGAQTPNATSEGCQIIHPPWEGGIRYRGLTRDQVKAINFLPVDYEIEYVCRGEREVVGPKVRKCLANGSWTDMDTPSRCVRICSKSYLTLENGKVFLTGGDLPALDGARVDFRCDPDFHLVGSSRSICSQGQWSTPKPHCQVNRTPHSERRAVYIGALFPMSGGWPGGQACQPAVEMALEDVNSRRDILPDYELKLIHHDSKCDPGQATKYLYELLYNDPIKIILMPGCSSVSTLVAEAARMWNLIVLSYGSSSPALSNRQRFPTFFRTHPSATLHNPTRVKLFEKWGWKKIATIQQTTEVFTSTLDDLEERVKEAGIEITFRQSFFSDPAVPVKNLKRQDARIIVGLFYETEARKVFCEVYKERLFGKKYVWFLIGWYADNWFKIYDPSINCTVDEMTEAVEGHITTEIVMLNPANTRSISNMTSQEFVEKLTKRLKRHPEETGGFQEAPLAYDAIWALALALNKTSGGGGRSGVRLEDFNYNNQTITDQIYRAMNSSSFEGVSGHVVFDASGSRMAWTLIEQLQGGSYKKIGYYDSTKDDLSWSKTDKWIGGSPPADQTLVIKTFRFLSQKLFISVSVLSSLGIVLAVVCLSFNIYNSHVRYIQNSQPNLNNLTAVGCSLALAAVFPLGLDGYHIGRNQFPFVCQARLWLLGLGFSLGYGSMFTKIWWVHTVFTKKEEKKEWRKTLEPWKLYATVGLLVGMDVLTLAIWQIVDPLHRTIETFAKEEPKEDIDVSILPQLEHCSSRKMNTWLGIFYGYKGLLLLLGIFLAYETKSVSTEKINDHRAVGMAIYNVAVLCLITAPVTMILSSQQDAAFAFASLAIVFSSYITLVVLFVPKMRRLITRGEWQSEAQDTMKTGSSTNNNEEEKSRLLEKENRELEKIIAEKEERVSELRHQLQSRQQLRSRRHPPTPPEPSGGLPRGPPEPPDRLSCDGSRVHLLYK
smiles,measurement,setting,value
"Cc1ccc2c(c1)c1c(n2CCc2ccc(C)nc2)CCN(C)C1 [Dimebon, 2,3,4,5-Tetrahydro-2,8-dimethyl-5-(2-(6-methyl-3-pyridyl)ethyl)-1H-pyrido(4,3-b)indole]",inhibition at 10 µM,[1],-10%
same,inhibition at 10 µM,[2],-7%
same,inhibition at 10 µM,[3],1%
same,inhibition at 10 µM,[4],4%
same,inhibition at 10 µM,[5],74%
same,inhibition at 10 µM,[6],10%
same,inhibition at 10 µM,[7],99%
same,inhibition at 10 µM,[8],95%
same,inhibition at 10 µM,[9],4%
same,inhibition at 10 µM,[10],96%
same,inhibition at 10 µM,[11],100%
same,inhibition at 10 µM,[12],48%
same,inhibition at 10 µM,[13],13%
same,inhibition at 10 µM,[14],101%
same,inhibition at 10 µM,[15],22%
same,inhibition at 10 µM,[16],6%
same,inhibition at 10 µM,[17],-2%
same,inhibition at 10 µM,[18],9%
same,inhibition at 10 µM,[19],0%
same,inhibition at 10 µM,[20],-4%
same,inhibition at 10 µM,[21],73%
